In general, IC50 refers to the concentration that inhibits the measured activity by half. A lower IC50 goes with greater potency.

This passage reports IC50 results from ChEMBL document CHEMBL1143495, “Topological model for the prediction of MRP1 inhibitory activity of pyrrolopyrimidines and templates derived from pyrrolopyrimidine” (Bioorg Med Chem Lett, 2005).

The experiment deals with Multidrug resistance-associated protein 1 (Homo sapiens, UniProt P33527). Put plainly: Inhibitory concentration against multidrug resistance associated protein 1.
Chain of Multidrug resistance-associated protein 1 (P33527 whole entry): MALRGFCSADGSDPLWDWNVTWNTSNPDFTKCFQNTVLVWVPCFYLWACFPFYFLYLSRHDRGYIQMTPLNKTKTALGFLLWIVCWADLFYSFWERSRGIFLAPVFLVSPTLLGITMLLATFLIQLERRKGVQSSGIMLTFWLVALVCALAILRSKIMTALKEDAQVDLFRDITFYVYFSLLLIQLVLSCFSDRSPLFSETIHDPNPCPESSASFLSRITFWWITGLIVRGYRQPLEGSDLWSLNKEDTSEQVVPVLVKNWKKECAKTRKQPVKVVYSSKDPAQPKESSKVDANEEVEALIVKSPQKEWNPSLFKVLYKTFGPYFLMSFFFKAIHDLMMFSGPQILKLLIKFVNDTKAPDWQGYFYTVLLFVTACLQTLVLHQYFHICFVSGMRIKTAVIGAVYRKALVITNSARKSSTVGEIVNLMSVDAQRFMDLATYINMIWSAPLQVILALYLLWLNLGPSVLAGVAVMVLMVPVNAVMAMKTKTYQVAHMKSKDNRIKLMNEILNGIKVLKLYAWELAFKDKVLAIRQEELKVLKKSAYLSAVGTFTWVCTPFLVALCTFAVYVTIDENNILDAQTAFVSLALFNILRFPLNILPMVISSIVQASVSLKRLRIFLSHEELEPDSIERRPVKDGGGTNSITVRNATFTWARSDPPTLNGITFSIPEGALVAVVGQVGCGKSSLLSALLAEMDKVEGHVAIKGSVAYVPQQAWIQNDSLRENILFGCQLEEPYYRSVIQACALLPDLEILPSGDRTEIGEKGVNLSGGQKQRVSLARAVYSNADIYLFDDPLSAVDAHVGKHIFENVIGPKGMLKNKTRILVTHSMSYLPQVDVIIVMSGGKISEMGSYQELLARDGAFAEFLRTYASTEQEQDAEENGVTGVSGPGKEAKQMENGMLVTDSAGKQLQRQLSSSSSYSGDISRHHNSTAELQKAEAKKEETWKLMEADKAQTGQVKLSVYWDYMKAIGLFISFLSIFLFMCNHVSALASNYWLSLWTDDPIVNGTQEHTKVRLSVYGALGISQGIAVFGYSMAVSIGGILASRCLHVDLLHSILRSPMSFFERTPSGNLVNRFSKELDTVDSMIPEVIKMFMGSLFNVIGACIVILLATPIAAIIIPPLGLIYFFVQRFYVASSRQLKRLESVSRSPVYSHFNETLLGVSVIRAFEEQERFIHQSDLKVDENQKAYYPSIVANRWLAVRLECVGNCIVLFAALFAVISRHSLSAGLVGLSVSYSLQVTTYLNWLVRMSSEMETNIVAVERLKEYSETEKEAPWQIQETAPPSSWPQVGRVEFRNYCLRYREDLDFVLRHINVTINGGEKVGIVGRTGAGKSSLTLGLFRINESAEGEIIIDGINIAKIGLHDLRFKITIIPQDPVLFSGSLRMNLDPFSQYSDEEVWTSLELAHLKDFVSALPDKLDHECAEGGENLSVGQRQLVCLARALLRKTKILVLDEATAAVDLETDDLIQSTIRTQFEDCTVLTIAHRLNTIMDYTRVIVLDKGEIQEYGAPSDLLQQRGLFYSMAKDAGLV
`Cc1c([N+](=O)[O-])nc2c(c1C(N)=O)c1ncnc(N3CCN(CCc4ccc(F)c(F)c4)CC3)c1n2C` showed an IC50 below 250 nM.

On to `CCOC(=O)Cn1c2cccc(C(N)=O)c2c2ncnc(N3CCN(CCc4ccc(F)c(F)c4)CC3)c21`, for which the IC50 was below 250 nM. In turn, `Cc1cnc2c(c1C#N)c1ncnc(N3CCN(CCc4ccc(F)c(F)c4)CC3)c1n2C` came in with an IC50 of at least 250 nM. With `Cc1cnc2c(c1C(N)=O)c1ncnc(N3CCN(CCc4ccc(F)c(F)c4)CC3)c1n2C`, the 50% inhibitory concentration (IC50) was below 250 nM. The result for `COc1cccc(CCN2CCN(c3ncnc4c(C#N)c5n(c34)CCCC5)CC2)c1` reads at least 250 nM.

`O=C(NCc1ccccn1)c1c2n(c3c(N4CCN(CCc5ccc(F)c(F)c5)CC4)ncnc13)CCCC2` displayed a 50% inhibitory concentration (IC50) below 250 nM. In the case of `COc1ccc(CCN2CCN(c3ncnc4c(C#N)c5n(c34)CCCC5)CC2)cc1` it was at least 250 nM; in that of `NC(=O)c1c2n(c3c(N4CCN(CCc5ccc(F)c(F)c5)CC4)ncnc13)CCCC2`, below 250 nM; in that of `N#Cc1c2n(c3c(N4CCN(CCc5ccc(F)c(F)c5)CC4)nc(-c4ccncc4)nc13)CCCC2`, below 250 nM. The result for `N#Cc1c2n(c3c(N4CCN(CCCc5ccccc5)CC4)ncnc13)CCCC2` reads at least 250 nM. In the case of `N#Cc1c2n(c3c(N4CCN(CCc5ccc(F)c(F)c5)CC4)ncnc13)CCCC2` it was below 250 nM; in that of `Cc1nc(-c2c3n(c4c(N5CCN(CCc6ccccc6)CC5)ncnc24)CCCC3)sc1C`, at least 250 nM; in that of `N#Cc1c2n(c3c(N4CCN(CCc5ccccc5[N+](=O)[O-])CC4)ncnc13)CCCC2`, at least 250 nM. `COc1cccc(CNC(=O)c2c3n(c4c(N5CCN(CCc6ccc(F)c(F)c6)CC5)ncnc24)CCCC3)c1OC`: the IC50 was below 250 nM. Take `N#Cc1c2n(c3c(N4CCN(CCc5ccc([N+](=O)[O-])cc5)CC4)ncnc13)CCCC2`: the IC50 was at least 250 nM. In the case of `N#Cc1c2n(c3c(N4CCN(CCc5cccc([N+](=O)[O-])c5)CC4)ncnc13)CCCC2`, the IC50 was at least 250 nM. The molecule `CCC(=O)c1c2n(c3c(N4CCN(CCc5ccccc5)CC4)ncnc13)CCCC2` showed an IC50 of at least 250 nM. The molecule `N#Cc1c2n(c3c(N4CCN(CCc5ccccc5)CC4)nc(-c4ccccc4)nc13)CCCC2` had an IC50 of at least 250 nM. In turn, `N#Cc1c2n(c3c(N4CCN(CCc5ccccc5Cl)CC4)ncnc13)CCCC2` gave an IC50 of at least 250 nM. In the case of `N#Cc1c2n(c3c(NS(=O)(=O)Cc4ccccc4)ncnc13)CCCC2` it was at least 250 nM; in that of `CN(CCc1ccccc1)c1ncnc2c(C#N)c3n(c12)CCCC3`, at least 250 nM; in that of `Cc1ccccc1-c1nc(N2CCN(CCc3ccc(F)c(F)c3)CC2)c2c(n1)c(C#N)c1n2CCCC1`, at least 250 nM.

`N#Cc1c2n(c3c(N4CCN(CCc5ccccc5)CC4)nc(I)nc13)CCCC2` displayed an IC50 of at least 250 nM. The result for `N#Cc1c2n(c3c(N4CCN(CC(=O)c5ccccc5)CC4)ncnc13)CCCC2` reads at least 250 nM. In the case of `N#Cc1c2n(c3c(NCCN4CCc5ccccc5C4)ncnc13)CCCC2` it was at least 250 nM; in that of `N#Cc1c2n(c3c(N4CCN(CCc5c[nH]c6ccccc56)CC4)ncnc13)CCCC2`, at least 250 nM. The result for `N#Cc1c2n(c3c(N4CCN(CCc5cccc(Cl)c5)CC4)ncnc13)CCCC2` reads at least 250 nM. `COC(=O)c1c2n(c3c(N4CCN(CCc5ccccc5)CC4)ncnc13)CCCC2` returned a half-inhibitory concentration (IC50) of at least 250 nM. In turn, `O=C(c1ccccc1)c1c2n(c3c(N4CCN(CCc5ccccc5)CC4)ncnc13)CCCC2` returned an IC50 of at least 250 nM.

`c1ccc(CCN2CCN(c3ncnc4c(-c5ncccn5)c5n(c34)CCCC5)CC2)cc1` showed an IC50 of at least 250 nM. The result for `N#Cc1c2n(c3c(N4CCN(CCc5ccc(Cl)cc5)CC4)ncnc13)CCCC2` reads at least 250 nM; that for `N#Cc1c2n(c3c(NCCc4ccccc4)ncnc13)CCCC2`, at least 250 nM; that for `N#Cc1c2n(c3c(N4CCN(CCc5ccc(F)c(F)c5)CC4)nc(-c4cccnc4)nc13)CCCC2`, below 250 nM.

Turning to `CC(=O)Nc1ccc(-c2nc(N3CCN(CCc4ccccc4)CC3)c3c(n2)c(C#N)c2n3CCCC2)cc1`, the IC50 is at least 250 nM. In turn, `Cc1nc(-c2c3n(c4c(N5CCN(CCc6ccccc6)CC5)ncnc24)CCCC3)no1` returned an IC50 of at least 250 nM. In the case of `N#Cc1c2n(c3c(N4CCN(S(=O)(=O)Cc5ccccc5)CC4)ncnc13)CCCC2` it was at least 250 nM.
